Values belong to the compound of their own block, whether it stands above or below them.
Legend:
[1] = in vivo; conditions: horse, concentration of C21-C21-desisobutyrylciclesonide in plasma
[2] = tested on: RAO horses; test: Budesonide study: moldy hay challenge, lung function variables and clinical score; type: in vivo
Excerpt: Nozzle A and a […]® inhaler device not available commercially is used in the study.

[3] = tested on: RAO horses; test: 1st ciclesonide study: moldy hay challenge, lung function variables and breathing effort score; type: in vivo; conditions: dexamethasone 0.066 mg/kg per os once daily; after 14 days; p<0.0001
[4] = tested on: RAO horses; test: 1st ciclesonide study: moldy hay challenge, serum cortisol; type: in vivo; conditions: dexamethasone 0.066 mg/kg per os once daily; days 3, 5, 7, 10, 14 and 17; p<0.0001
[5] = tested on: RAO horses; test: 2nd ciclesonide study: moldy hay challenge, lung function variables and weighted clinical score; type: in vivo; conditions: dexamethasone 0.066 mg/kg per os once daily; after 14 days
Excerpt: (§1) The commercially available […]® is used in the study.

[6] = tested on: RAO horses; test: 2nd ciclesonide study: moldy hay challenge, serum cortisol; type: in vivo; conditions: dexamethasone 0.066 mg/kg per os once daily; days 3, 5, 7, 10, 14 and 17; p<0.0001
Excerpt: as §1

[7] = tested on: RAO horses; test: Segmented neutrophil and lymphocyte counts in the 1st and 2nd ciclesonide studies; type: in vivo; conditions: for lymphocytes count / segmented neutrophil count: after administration of dexamethasone 0.066 mg/kg per os; for Lymphocytes / Segmented neutrophils: dexamethasone 0.066 mg/kg per os once daily 14 days, mean, n=8
Method: as §1
The segmented neutrophil counts and the lymphocyte counts are determined in the studies above: ciclesonide treatment versus dexamethasone treatment.
Concentration of segmented neutrophils and lymphocytes on day (D): D0, D14 and D21 in the treatment groups of dexamethasone and different doses of ciclesonide (n=8) (mean (SEM)

[8] = taken orally; cited from earlier work

Structure (SMILES): C[C@]12C=CC(=O)C=C1CC[C@@H]1[C@@H]2[C@@H](O)C[C@@]2(C)[C@H]1C[C@H]1O[C@@H](C3CCCCC3)O[C@]12C(=O)CO [C21-C21-desisobutyrylciclesonide]
concentration at 4 h [1]: < 0.25 nM

Structure (SMILES): CCCC1O[C@@H]2C[C@H]3[C@@H]4CCC5=CC(=O)C=C[C@]5(C)[C@H]4[C@@H](O)C[C@]3(C)[C@]2(C(=O)CO)O1 (stereo partly drawn) [budesonide]
clinical score (breathing effort score) compared to pretreatment values ([2]; all three budesonide doses (450/900/1800 μg/horse twice daily), after 7 and 14 days, p=0.002 to p<0.0001): significantly reduced | all lung function variables (transpulmonary pressure, lung resistance, lung elastance) compared to pretreatment values ([2]; budesonide 1800 μg/horse ex RESPIMAT twice daily per inhalation, after 14 days, p≤0.0001): significantly reduced | lung function variables, difference to dexamethasone group ([2]; budesonide 1800 μg/horse ex RESPIMAT twice daily, after 7 or 14 days): no significant difference | clinical score, difference to dexamethasone group ([2]; budesonide 900 and 1800 μg/horse ex RESPIMAT twice daily, after 7 and 14 days): no significant difference

serum cortisol levels compared to pretreatment values [4]: significantly reduced | serum cortisol levels in comparison to any of the ciclesonide treatment groups [4]: significantly reduced | serum cortisol levels [6]: significantly reduced | serum cortisol levels in comparison to any of the ciclesonide treatment groups [6]: significantly reduced | lymphocytes count ([7]; 1st ciclesonide study): decreased | segmented neutrophil count ([7]; 1st ciclesonide study): increased | lymphocytes count ([7]; 2nd ciclesonide study): decreased | segmented neutrophil count ([7]; 2nd ciclesonide study): increased | neutrophilia and lymphopenia ([7]; after treatment with dexamethasone (1st and 2nd ciclesonide study)): Neutrophilia and lymphopenia is observed | Lymphocytes ([7]; 1st ciclesonide study, D 0): 2.1e+09 L⁻¹ | Segmented neutrophils ([7]; 1st ciclesonide study, D 0): 4.77e+09 L⁻¹ | Lymphocytes ([7]; 1st ciclesonide study, D 14): 1.71e+09 L⁻¹ | Segmented neutrophils ([7]; 1st ciclesonide study, D 14): 6.16e+09 L⁻¹ | Lymphocytes ([7]; 1st ciclesonide study, D 21): 1.76e+09 L⁻¹ | Segmented neutrophils ([7]; 1st ciclesonide study, D 21): 4.27e+09 L⁻¹ | Lymphocytes ([7]; 2nd ciclesonide study, D 0): 2.14e+09 L⁻¹ | Segmented neutrophils ([7]; 2nd ciclesonide study, D 0): 4.82e+09 L⁻¹ | Lymphocytes ([7]; 2nd ciclesonide study, D 14): 1.73e+09 L⁻¹ | Segmented neutrophils ([7]; 2nd ciclesonide study, D 14): 6.23e+09 L⁻¹ | Lymphocytes ([7]; 2nd ciclesonide study, D 21): 1.73e+09 L⁻¹ | Segmented neutrophils ([7]; 2nd ciclesonide study, D 21): 4.82e+09 L⁻¹
Structure (SMILES): C[C@@H]1C[C@H]2[C@@H]3CCC4=CC(=O)C=C[C@]4(C)[C@@]3(F)[C@@H](O)C[C@]2(C)[C@@]1(O)C(=O)CO [dexamethasone]
clinical score (breathing effort score) compared to pretreatment values ([2]; dexamethasone 0.066 mg/kg per os once daily, after 7 and 14 days): significantly reduced | all lung function variables compared to pretreatment values ([2]; dexamethasone 0.066 mg/kg per os once daily, after 14 days, p≤0.0001): significantly reduced | all lung function variables (ΔPL, RL, EL) compared to pretreatment values [3]: significantly reduced | all lung function variables (ΔPL, RL, EL) compared to pretreatment values [5]: significantly reduced | weighted clinical score compared to pretreatment values [5]: significantly reduced | potency relative to prednisone [8]: 7 times | potency relative to the naturally occurring hormone cortisol [8]: 27 times

Source: patent publication US10258634B2, “Ciclesonide for the treatment of airway disease in horses” (Boehringer Ingelheim Vetmedica GmbH, priority 2012, dated 2019)
